Results taken from US20250073226A1, “USE OF OPIOID FOR TREATMENT OF AUTISM SPECTRUM DISORDERS” (priority 2021, published 2025).
Where “and” joins values, the source holds several entries; their conditions need not be identical. Equal entries are not always repeated. Marks after values point to notes of the source that are not given here.

What was measured:
mice = settings: Non-patent Document 28, cited from earlier work
Fmr1 knockout mice = experiment: 3 chamber test in Fmr1 knockout mice; assay type: in vivo; settings: single subcutaneous administration, low dose of less than 1/10 of 1 mg/kg
Description: It is known that patients with human fragile X syndrome (FXS), which is caused by abnormalities of the X chromosome, present with social impairment symptoms, such as those often seen in ASD (Non-patent Documents 7 to 9). The Fmr1 knockout mouse (Cell, 1994, 15; 78 (1): 23-33) is a model mouse that mimics human fragile X syndrome (FXS), and is also widely used as a model of ASD. Buprenorphine hydrochloride, a MOR partial agonist used as an analgesic, and physiological saline of a solvent were administered once, and the action on social dysfunction of Fmr1 knockout mice was examined. The dose was calculated as a free form for buprenorphine. As a social function evaluation, a 3 chamber test (Nature Medicine, 2017, 23; p674-677) was used. In the 3chamber test, two types of mice (Unfamiliar and Familiar) are placed in cups at both left and right ends of three compartments, and a ratio of time to search for a mouse with high novelty to a mouse with low novelty is calculated and quantified as social function (preference to a mouse with high novelty).

[1] = Pharmacokinetic: drug concentrations in plasma by LC-MS after subcutaneous administration; settings: for concentration at 0.5 h: Plasma concentration 0.5 hr; for concentration at 1 h: Plasma concentration 1 hr; for concentration at 3 h: Plasma concentration 3 hr; for concentration at 12 h: Plasma concentration 12 hr; for concentration at 24 h: Plasma concentration 24 hr
medial prefrontal cortex = experiment: Brain activation: c-Fos positive cells in medial prefrontal cortex; assay type: in vivo, mice; settings: VPA model, 1 hour after administration
Experimental: (§1) Saline or buprenorphine at 0.0003, 0.003, or 0.03 mg/kg was administered to the VPA model, and 1 hour after that, the brain was extracted and immunostained with an anti-c-Fos antibody, and the number of c-Fos positive cells in nucleus accumens (NAc) and medial prefrontal cortex, which are brain regions known to promote social behavior, and dorsomedial periaqueductal gray (dmPAG), which is a brain region known to reduce social behavior and to be involved in the expression of analgesic effects, was quantified as the number of activated nerve cells.

nucleus accumbens (NAc) = experiment: Brain activation: c-Fos positive cells in nucleus accumbens; assay type: in vivo, mice; settings: VPA model, 1 hour after administration
Experimental: as §1

VPA model = experiment: Antagonist test with naloxone in VPA model; assay type: in vivo, mice; settings: naloxone hydrochloride 1 mg/kg s.c. 15 minutes before buprenorphine 0.003 mg/kg s.c.
Experimental: In the same manner as in Example 1, to the VPA model, Saline or a MOR selective antagonist, naloxone hydrochloride was subcutaneously administered so as to be 1 mg/kg as a hydrochloride, and 15 minutes after that, 0.003 mg/kg of buprenorphine was subcutaneously administered, and the amount of social behavior for 1 hour from 20 minutes after administration of buprenorphine was quantified.

[2] = system: dorsomedial periaqueductal gray (dmPAG); experiment: Brain activation: c-Fos positive cells in dorsomedial periaqueductal gray; assay type: in vivo, mice; settings: VPA model, 1 hour after administration
Experimental: as §1

[3] = Estimation of buprenorphine maximum plasma concentration in humans by proportional calculation; settings: human, other: transdermal, 10 ug/kg
Experimental: As described above, preferred maximum plasma concentrations in ASD applications in mice are in the range of 26.6 pg/mL (at the time of administration of 0.3 pg/kg) to 2360 μg/mL (at the time of administration of 30p/kg) (preferably more than about 26.6 pg/mL and less than about 2360 μg/mL).

[4] = system: valproic acid model mice (VPA model); experiment: Social interaction test in valproic acid model mice; assay type: in vivo, ICR mice; settings: single s.c. dose
Description: Since ASD-like symptoms such as social impairment and cognitive dysfunction are observed, it is one of the most widely used the ASD model mice.
As the sociality evaluation, a method called a social interaction test was used. In the Social Interaction Test, two mice are placed in one cage, and how many seconds a target mouse (Test mouse) performs sniffing, which is social behavior, on another mouse (Intruder mouse) is quantified.

[5] = ICR mice, buprenorphine 0.1 μg/kg s.c., individual samples
[6] = ICR mice, buprenorphine 0.3 μg/kg s.c., individual samples
[7] = ICR mice, buprenorphine 3 μg/kg s.c., individual samples
[8] = ICR mice, buprenorphine 10 μg/kg s.c., individual samples
[9] = ICR mice, buprenorphine 30 μg/kg s.c., individual samples
[10] = ICR, mouse, plasma, sc, 0.1 μg/kg, ICR mice, buprenorphine 0.1 μg/kg s.c., Mean
[11] = ICR, mouse, plasma, sc, 0.1 μg/kg, ICR mice, buprenorphine 0.1 μg/kg s.c., individual samples
[12] = ICR, mouse, plasma, sc, 0.3 μg/kg, ICR mice, buprenorphine 0.3 μg/kg s.c., Mean
[13] = ICR, mouse, plasma, sc, 0.3 μg/kg, ICR mice, buprenorphine 0.3 μg/kg s.c., individual samples
[14] = ICR, mouse, plasma, sc, 1 μg/kg, ICR mice, buprenorphine 1 μg/kg s.c., Measured value
[15] = ICR, mouse, plasma, sc, 3 μg/kg, ICR mice, buprenorphine 3 μg/kg s.c., Mean
[16] = ICR, mouse, plasma, sc, 3 μg/kg, ICR mice, buprenorphine 3 μg/kg s.c., individual samples
[17] = ICR, mouse, plasma, sc, 10 μg/kg, ICR mice, buprenorphine 10 μg/kg s.c., Mean
[18] = ICR, mouse, plasma, sc, 10 μg/kg, ICR mice, buprenorphine 10 μg/kg s.c., individual samples
[19] = ICR, mouse, plasma, sc, 30 μg/kg, ICR mice, buprenorphine 30 μg/kg s.c., Mean
[20] = ICR, mouse, plasma, sc, 30 μg/kg, ICR mice, buprenorphine 30 μg/kg s.c., individual samples

Compound: CO[C@]12CC[C@@]3(C[C@@H]1[C@](C)(O)C(C)(C)C)[C@H]1Cc4ccc(O)c5c4[C@@]3(CCN1CC1CC1)[C@H]2O5 [buprenorphine, 21-cyclopropyl-7-a-[(S)-1-hydroxy-1,2,2-trimethylpropyl]-6,14-endo-ethano-6,7,8,14 tetrahydrooripavine]
- dose at which the analgesic effect was maximum (mice): 1 mg/kg
- minimum dose at which the analgesic effect is observed (mice; subcutaneous administration): 0.01 mg/kg
- improvement effect in social impairment (3 chamber test) (Fmr1 knockout mice): significant improvement effect in social impairment
- Plasma concentration 0.5 hr [1, 5]: 6.85 pg/mL and 6.52 pg/mL
- Plasma concentration 1 hr [1, 5]: 4.66 pg/mL and 5.36 pg/mL
- Plasma concentration 3 hr [1, 5]: BLQ (BLQ: LLOQ (lower limit of quantitation: 2 pg/mL) or less)
- Plasma concentration 12 hr [1, 5]: BLQ (BLQ: LLOQ (lower limit of quantitation: 2 pg/mL) or less)
- Plasma concentration 24 hr [1, 5]: BLQ (BLQ: LLOQ (lower limit of quantitation: 2 pg/mL) or less)
- Plasma concentration 0.5 hr [1, 6]: 26 pg/mL and 30.9 pg/mL
- Plasma concentration 1 hr [1, 6]: 13.7 pg/mL and 16.5 pg/mL
- Plasma concentration 3 hr [1, 6]: 5.08 pg/mL and 4.87 pg/mL
- Plasma concentration 12 hr [1, 6]: BLQ (BLQ: LLOQ (lower limit of quantitation: 2 pg/mL) or less)
- Plasma concentration 24 hr [1, 6]: BLQ (BLQ: LLOQ (lower limit of quantitation: 2 pg/mL) or less)
- Cmax ([1]; ICR mice, buprenorphine 1 μg/kg s.c.): 0.067 ng/mL
- Plasma concentration 0.5 hr [1, 7]: 260 pg/mL and 271 pg/mL
- Plasma concentration 1 hr [1, 7]: 119 pg/mL and 127 pg/mL
- Plasma concentration 3 hr [1, 7]: 47.6 pg/mL and 83.3 pg/mL
- Plasma concentration 12 hr [1, 7]: 0.00358 ng/mL and 0.00346 ng/mL
- Plasma concentration 24 hr [1, 7]: BLQ (BLQ: LLOQ (lower limit of quantitation: 2 pg/mL) or less)
- Cmax ([1]; ICR mice, buprenorphine 10 μg/kg s.c.): 0.67 ng/mL
- Plasma concentration 0.5 hr [1, 8]: 711* pg/mL and 666* pg/mL
- Plasma concentration 1 hr [1, 8]: 471* pg/mL and 367* pg/mL
- Plasma concentration 3 hr [1, 8]: 145 pg/mL and 135 pg/mL
- Plasma concentration 12 hr [1, 8]: 0.0171 ng/mL and 0.0271 ng/mL and 0.00669 ng/mL
- Plasma concentration 24 hr [1, 8]: BLQ (BLQ: LLOQ (lower limit of quantitation: 2 pg/mL) or less)
- Cmax ([1]; ICR mice, buprenorphine 30 μg/kg s.c.): 2.36 ng/mL
- Plasma concentration 0.5 hr [1, 9]: 2560* pg/mL and 2770* pg/mL
- Plasma concentration 1 hr [1, 9]: 1480* pg/mL and 1670* pg/mL
- Plasma concentration 3 hr [1, 9]: 436* pg/mL and 494* pg/mL
- Plasma concentration 12 hr [1, 9]: 0.0312 ng/mL and 0.0727 ng/mL and 0.0313 ng/mL
- Plasma concentration 24 hr [1, 9]: 0.00768 ng/mL and 0.0042 ng/mL
- Cmax ([1]; ICR, mouse, plasma, sc, 0.1 ug/kg): 0.00778 ng/mL
- concentration at 0.5 h [1, 10]: 0.00778 ng/mL
- concentration at 0.5 h [1, 11]: 0.00998 ng/mL
- concentration at 1 h [1, 10]: 0.00485 ng/mL
- concentration at 1 h [1, 11]: 0.00452 ng/mL
- concentration at 3 h [1, 10]: 0.001 ng/mL
- concentration at 3 h [1, 11]: 0.00299 ng/mL
- concentration at 12 h [1, 10]: 0 ng/mL
- concentration at 24 h [1, 10]: 0 ng/mL
- Cmax ([1]; ICR, mouse, plasma, sc, 0.3 ug/kg): 0.0266 ng/mL
- concentration at 0.5 h [1, 12]: 0.0266 ng/mL
- concentration at 0.5 h [1, 13]: 0.0228 ng/mL
- concentration at 1 h [1, 12]: 0.0148 ng/mL
- concentration at 1 h [1, 13]: 0.0143 ng/mL
- concentration at 3 h [1, 12]: 0.00477 ng/mL
- concentration at 3 h [1, 13]: 0.00436 ng/mL
- concentration at 12 h [1, 12]: 0 ng/mL
- concentration at 24 h [1, 12]: 0 ng/mL
- Cmax ([1]; ICR, mouse, plasma, sc, 1 ug/kg): 0.067 ng/mL
- concentration at 0.5 h [1, 14]: 0.067 ng/mL
- concentration at 1 h [1, 14]: 0.025 ng/mL
- concentration at 3 h [1, 14]: 0.02 ng/mL
- Cmax ([1]; ICR, mouse, plasma, sc, 3 ug/kg): 0.268 ng/mL
- concentration at 0.5 h [1, 15]: 0.268 ng/mL
- concentration at 0.5 h [1, 16]: 0.274 ng/mL
- concentration at 1 h [1, 15]: 0.126 ng/mL
- concentration at 1 h [1, 16]: 0.132 ng/mL
- concentration at 3 h [1, 15]: 0.0641 ng/mL
- concentration at 3 h [1, 16]: 0.0613 ng/mL
- concentration at 12 h [1, 15]: 0.00312 ng/mL
- concentration at 12 h [1, 16]: 0.00231 ng/mL
- concentration at 24 h [1, 15]: 0 ng/mL
- Cmax ([1]; ICR, mouse, plasma, sc, 10 ug/kg): 0.67 ng/mL
- concentration at 0.5 h [1, 17]: 0.67 ng/mL
- concentration at 0.5 h [1, 18]: 0.632 ng/mL
- concentration at 1 h [1, 17]: 0.399 ng/mL
- concentration at 1 h [1, 18]: 0.358 ng/mL
- concentration at 3 h [1, 17]: 0.147 ng/mL
- concentration at 3 h [1, 18]: 0.16 ng/mL
- concentration at 12 h [1, 17]: 0.017 ng/mL
- concentration at 24 h [1, 17]: 0.000777 ng/mL
- concentration at 24 h [1, 18]: 0.00233 ng/mL
- Cmax ([1]; ICR, mouse, plasma, sc, 30 ug/kg): 2.36 ng/mL
- concentration at 0.5 h [1, 19]: 2.36 ng/mL
- concentration at 0.5 h [1, 20]: 1.76 ng/mL
- concentration at 1 h [1, 19]: 1.49 ng/mL
- concentration at 1 h [1, 20]: 1.32 ng/mL
- concentration at 3 h [1, 19]: 0.447 ng/mL
- concentration at 3 h [1, 20]: 0.412 ng/mL
- concentration at 12 h [1, 19]: 0.0451 ng/mL
- concentration at 24 h [1, 19]: 0.00551 ng/mL
- concentration at 24 h [1, 20]: 0.00464 ng/mL
- number of activated nerve cells (c-Fos positive cells) (medial prefrontal cortex; 0.003 mg/kg): significantly increased
- number of activated nerve cells (c-Fos positive cells) (medial prefrontal cortex; 0.03 mg/kg): significantly increased
- number of activated nerve cells (c-Fos positive cells) (nucleus accumbens (NAc); 0.003 mg/kg): significantly increased
- number of activated nerve cells (c-Fos positive cells) (nucleus accumbens (NAc); 0.03 mg/kg): significantly increased
- improvement effect in social impairment with combined use of naloxone (VPA model): antagonized by combined use of naloxone
- number of activated nerve cells (c-Fos positive cells) ([2]; 0.003 mg/kg): no change
- number of activated nerve cells (c-Fos positive cells) ([2]; 0.03 mg/kg): significantly increased
- Cmax [3]: 0.084 to 0.176 ng/mL
- improvement effect in social impairment at a high dose ([4]; high dose close to the analgesic dose): reduced the improvement effect in social impairment
- improvement effect in social impairment ([4]; low dose of less than 1/10 of the dose of maximum analgesic effect, 20 minutes from 1 hour after administration): significant improvement effect in social impairment
